Experimental data taken from PMC9218685, “Legume Plant Peptides as Sources of Novel Antimicrobial Molecules Against Human Pathogens” (Frontiers in Molecular Biosciences, 2022).
In brackets after ≈: the same amount, converted by molar mass. Entries after “also recorded” stand apart in the source; their conditions may differ. Like-named read-outs stand apart in the source and are kept apart here. Peptide text beside a SMILES is read from it.

Assays:
A. baumannii = assay: Scanning electron microscopy of cell morphology; format: cell-based, Acinetobacter baumannii; details: 30 min treatment, peptide 1.6 or 3.125 µM as in Figure 3 legend
Protocol: A. baumannii and C. albicans were grown and treated the same way as for the membrane permeability assay. Cells were then fixed with 2.5% (v/v) glutaraldehyde in phosphate buffered saline (PBS, pH 7.4). 5 μl of the above bacterial and yeast suspensions were spotted on a silicon disk coated with 0.01% Poly-L-Lysine. The filters were washed twice with PBS and gradually dehydrated with ethanol series (30, 50, 70, 80%, and three times 100% ethanol, each for minimum 30 min). The samples were dried with a critical point dryer (K850: Quorum Technologies Ltd.), followed by 12 nm gold coating and observed under a JEOL JSM-7100F/LV scanning electron microscope.
FIGURE 3 Viability, membrane permeability and morphology of A. baumannii cells after NCR treatment (A–L) SYTO9/PI staining observed with confocal microscope, (M–X) Cell morphology observed with SEM. (A,M) untreated control, (B,N) CaNCR13, 3.125 µM, (C,O) CaNCR63, 3.125 µM, (D,P) CaNCR63_1-20, 3.125 µM, (E,Q) CaNCR63_15-34, 3.125 µM, (F,R) MsNCR443, 3.125 µM, (G,S) MsNCR463_16-35, 1.6 µM, (H,T) MsNCR463_17-30, 3.125 µM, (I,U) PsNCR349, 1.6 µM, (J,V) PsNCR349_26-50, 3.125 µM, (K,W) PsNCR349_31-50, 3.125 µM, (L,X) PsNCR352, 1.6 µM.

[1] = tested on: Lambda DNA/HindIII marker; assay: Gel retardation assay (DNA aggregation); format: binding; details: 100 ng DNA, 5 or 10 µM peptide in water, 30 min at room temperature, 1% agarose gel
Protocol: Interactions of peptides with DNA was visualized with gel retardation assay ([Hsu et al., 2005]). 100 ng Lambda DNA/HindIII marker (ThermoFisher Scientific) was incubated with 0, 5 or 10 µM synthetic NCRs or NCR derivatives in water for 30 min at room temperature and then loaded into 1% agarose gel. Electrophoresis of DNA fragments separated the mobile HindIII-digested DNA fragments while the aggregated DNA remained in the loading wells.
FIGURE 6 Aggregation of DNA by NCR peptides. Lambda HindIII digested DNA was incubated without (0) or with NCR peptides at 5 or 10 μM concentration.

[2] = tested on: Candida albicans W01 strain; assay: microbe, parasite or virus in culture; format: cell-based; details: read-out: MFC, minimal fungicidal concentration against C. albicans
From the text: (§1) The following pathogenic bacterial strains were used: The Gram-positive Enterococcus faecalis (ATCC 29212), Staphylococcus aureus (HNCMO112011), Listeria monocytogenes (ATCC 19111) and the Gram-negative Pseudomonas aeruginosa (ATCC 27853), Escherichia coli (ATCC 8739), Salmonella enterica (ATCC 13076), Klebsiella pneumoniae (NCTC 13440), Acinetobacter baumannii (ATCC 17978) obtained from the ATCC (United States) and NCTC (National Collection of Type Cultures–England). For the antifungal experiment the Candida albicans W01 strain ([Ördögh et al., 2014]) was used. Antimicrobial activities of peptides against ∼10^7 log phase bacteria were tested in Potassium-Phosphate Buffer (PPB, pH 7.4) as described by [Jenei et al. (2020)] while anti-Candida assays were done according to [Szerencsés et al. (2021)]. The two-fold dilution series of peptides ranged from 25 μM to 0.125 μM, while that of the antibiotics ampicillin (Merck) and miconazole (Duchefa Biochemie) from […] to 0.1 μM. The lowest concentration of the antimicrobial agents, which completely eliminated viable bacteria or C. albicans were considered as the minimal bactericidal concentration (MBC) and minimal fungicidal concentration (MFC).

[3] = tested on: Acinetobacter baumannii (ATCC 17978); assay: microbe, parasite or virus in culture; format: cell-based; details: ATCC 17978, 3 h, pH 7.4; read-out: MBC, minimal bactericidal concentration against A. baumannii
How it was run: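 Peptides were serially diluted two-fold from 25 µM to 0.8 µM and incubated 3 h with roughly 10^7 log-phase cells in potassium-phosphate buffer at pH 7.4; complete killing of viable bacteria defined the minimal bactericidal concentration.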

[4] = tested on: Enterococcus faecalis (ATCC 29212); format: cell-based; details: for Ability to kill E. faecalis: 3 h, ~10^7 log phase bacteria, peptides ≤25 µM
From the text: as §1
(§2) The minimal bactericidal concentrations (MBCs) were determined after 3 h of treatment of ∼10^7 log phase bacteria with 2-fold serial dilution of peptides from 25 µM to 0.8 µM. Only 25 of the 50 cationic M. truncatula peptides had activity at ≤25 µM (Supplementary Table S1). […] Three peptides were only active against two bacterial strains; NCR649 against L. monocytogenes and A. baumannii, NCR281 against L. monocytogenes and P. aeruginosa and NCR350 against A. baumannii and P. aeruginosa. […] None of the anionic NCR peptides affected the survival of the tested bacterial strains.

[5] = tested on: Escherichia coli (ATCC 8739); format: cell-based; details: ATCC 8739, 3 h
From the text: as §1, §2

[6] = tested on: Listeria monocytogenes (ATCC 19111); format: cell-based; details: ATCC 19111, 3 h
From the text: as §1, §2

[7] = tested on: Pseudomonas aeruginosa (ATCC 27853); format: cell-based; details: ATCC 27853, 3 h
From the text: as §1, §2

[8] = tested on: E. coli, S. enteritidis, P. aeruginosa, L. monocytogenes, S. aureus, E. faecalis, K. pneumoniae and A. baumannii; assay: Antimicrobial activity assay, spectrum over the eight tested pathogenic bacteria; format: cell-based; details: 3 h treatment of ~10^7 log phase bacteria, peptides 25 to 0.8 µM; active = MBC ≤25 µM
From the text: as §1
We investigated the antimicrobial activity of 78 NCR peptides from M. truncatula and 12 NCRs from other IRLC legumes as well as their shorter derivatives against E. coli, S. enteritidis, P. aeruginosa, L. monocytogenes, S. aureus, E. faecalis, K. pneumoniae and A. baumannii (Supplementary Table S1). In the selection of the M. truncatula peptides, we considered their symbiotic expression levels but also their physicochemical properties. The antimicrobial activity of NCRs has so far been attributed to cationic peptides, with the exception of one anionic peptide. To investigate whether other anionic NCRs are antimicrobial, in addition to the cationic peptides, neutral and anionic NCRs were also included covering a broad range of peptides with different net charges (NC: from 7.8 to −10.2) and isoelectric points (pI: from 10.69 to 2.95). 50 peptides had positive net charge and pI > 7.0, while 28 peptides had negative net charge and pI < 7.0 (Supplementary Table S1A). Of the other legumes, only cationic NCR peptides were studied (Supplementary Table S1B).
as §2

| Structure (SMILES) | MBC [3] | MFC ([2]; W01 strain) | Ability to kill E. faecalis [4] | Antibacterial spectrum over the eight tested bacterial strains [8] | other results |
| --- | --- | --- | --- | --- | --- |
| CC[C@H](C)[C@H](NC(=O)[C@H](CCCCN)NC(=O)[C@H](CO)NC(=O)[C@H](CCCNC(=N)N)NC(=O)[C@@H]1CCCN1C(=O)[C@@H](N)CS)C(=O)N[C@@H](CCCCN)C(=O)N[C@@H](CC(=O)O)C(=O)N[C@@H](CS)C(=O)N[C@H](C(=O)N[C@@H](CCCCN)C(=O)NCC(=O)N[C@@H](Cc1ccc(O)cc1)C(=O)N[C@@H](CS)C(=O)N[C@@H](CCCNC(=N)N)C(=O)N[C@@H](CS)C(=O)N[C@H](C(=O)N[C@@H](CCCNC(=N)N)C(=O)N[C@@H](CCCCN)C(=O)N[C@@H](CCCCN)C(N)=O)C(C)C)C(C)C [CaNCR63_15-34] (H-CPRSKIKDCVKGYCRCVRKK-NH2; N-terminus assumed) | – | – | – | – | Morphology of A. baumannii cells by SEM (A. baumannii): rough cell surface, lysis and flattening of the cells; also recorded: Filament-like structures; Aggregation of HindIII-digested λ DNA (DNA retained in loading wells) [1]: DNA remained in the wells |
| Clc1ccc(COC(Cn2ccnc2)c2ccc(Cl)cc2Cl)c(Cl)c1 (stereo not drawn) [Miconazole, reference compound] | – | – | – | – | MFC ([2]; Candida albicans, W01STRAIN, C. albicans W01, two-fold dilution series, lowest concentration completely eliminating viable C. albicans): 50600 µM (≈ 21000 µg/mL) |
| CC(C)[C@H](NC(=O)CNC(=O)[C@H](CCCNC(=N)N)NC(=O)[C@H](CCCCN)NC(=O)[C@@H]1CCCN1C(=O)[C@@H](N)CCCCN)C(=O)N[C@@H](CC(N)=O)C(=O)N[C@@H](Cc1ccccc1)C(=O)N[C@@H](CCCNC(=N)N)C(=O)N[C@@H](CS)C(=O)N[C@@H](CCCNC(=N)N)C(=O)N[C@@H](CCCCN)C(=O)NCC(=O)N[C@@H](CCCCN)C(N)=O [MsNCR463_17-30] (H-KPKRGVNFRCRKGK-NH2) | 3.125 µM (≈ 5.23 µg/mL) | 3.125 µM (≈ 5.23 µg/mL) | – | – | – |
| CC[C@H](C)[C@H](NC(=O)CNC(=O)[C@H](CCC(N)=O)NC(=O)[C@@H](NC(=O)[C@H](CS)NC(=O)[C@H](CCCNC(=N)N)NC(=O)[C@H](CC(C)C)NC(=O)[C@H](CCCNC(=N)N)NC(=O)[C@H](CCCNC(=N)N)NC(=O)[C@H](CC(N)=O)NC(=O)[C@@H](NC(=O)[C@H](Cc1ccc(O)cc1)NC(=O)[C@H](CCSC)NC(=O)[C@@H]1CCCN1C(=O)[C@H](Cc1ccc(O)cc1)NC(=O)[C@H](CC(C)C)NC(=O)[C@@H](NC(=O)[C@H](CC(N)=O)NC(=O)[C@H](CS)NC(=O)[C@H](CC(=O)O)NC(=O)[C@@H](NC(=O)[C@H](CC(=O)O)NC(=O)[C@H](CO)NC(=O)[C@@H](NC(=O)[C@H](CS)NC(=O)[C@H](CCC(=O)O)NC(=O)[C@@H](N)CO)[C@@H](C)CC)[C@@H](C)O)C(C)C)[C@@H](C)CC)[C@@H](C)CC)C(=O)N[C@@H](CS)C(=O)N[C@@H](Cc1c[nH]cn1)C(=O)N[C@H](C(=O)N[C@H](C(=O)N[C@H](C(=O)N[C@@H](C)C(=O)N[C@@H](CCCNC(=N)N)C(=O)N[C@@H](CCCNC(=N)N)C(=O)N[C@@H](CCCNC(=N)N)C(=O)O)[C@@H](C)O)[C@@H](C)O)[C@@H](C)O [NCR299] (H-SECISDTDCNVLYPMYINRRLRCIQGICHTTTARRR-OH; N-terminus assumed) | – | – | able to kill | effective against five or four strains | MBC Enterococcus faecalis ([4]; ATCC 29212, 3 h): 12.5 µM (≈ 53.2 µg/mL); MBC Escherichia coli [5]: 12.5 µM (≈ 53.2 µg/mL); MBC Listeria monocytogenes [6]: 12.5 µM (≈ 53.2 µg/mL); MBC Pseudomonas aeruginosa [7]: 3.125 µM (≈ 13.3 µg/mL) |
| CC[C@H](C)[C@H](NC(=O)[C@@H]1CCCN1C(=O)[C@H](CC(C)C)NC(=O)[C@H](CS)NC(=O)[C@H](CCCCN)NC(=O)[C@H](CS)NC(=O)[C@H](CCSC)NC(=O)[C@H](CCCNC(=N)N)NC(=O)[C@H](CCCNC(=N)N)NC(=O)[C@@H](NC(=O)[C@H](CS)NC(=O)[C@H](CCCNC(=N)N)NC(=O)[C@@H]1CCCN1C(=O)[C@H](CCC(=O)O)NC(=O)[C@H](CCSC)NC(=O)CNC(=O)[C@@H]1CCCN1C(=O)[C@@H]1CCCN1C(=O)[C@H](CS)NC(=O)[C@H](CCSC)NC(=O)[C@H](Cc1c[nH]cn1)NC(=O)[C@@H]1CCCN1C(=O)[C@@H]1CCCN1C(=O)[C@H](CS)NC(=O)[C@H](Cc1c[nH]cn1)NC(=O)[C@H](CO)NC(=O)[C@H](CC(=O)O)NC(=O)[C@@H](NC(=O)[C@@H](NC(=O)[C@H](CS)NC(=O)[C@H](CC(C)C)NC(=O)[C@@H](N)Cc1ccc(O)cc1)C(C)C)[C@@H](C)O)C(C)C)C(=O)NCC(=O)N[C@@H](Cc1c[nH]c2ccccc12)C(=O)N[C@@H](CCCNC(=N)N)C(=O)N[C@@H](CCCCN)C(=O)N[C@@H](Cc1ccc(O)cc1)C(=O)N[C@@H](Cc1ccccc1)C(=O)N[C@H](C(=O)N1CCC[C@H]1C(=O)O)C(C)C [NCR336] (H-YLCVTDSHCPPHMCPPGMEPRCVRRMCKCLPIGWRKYFVP-OH; N-terminus assumed) | – | – | able to kill | capable of killing all tested bacteria; also recorded: active against all the eight tested pathogens | – |
| CSCC[C@H](NC(=O)[C@H](CC(N)=O)NC(=O)[C@H](Cc1ccccc1)NC(=O)[C@@H](NC(=O)[C@H](CC(C)C)NC(=O)[C@H](CCCCN)NC(=O)[C@H](CCCCN)NC(=O)[C@H](CCCCN)NC(=O)[C@H](CCCCN)NC(=O)[C@H](CCCCN)NC(=O)[C@H](CC(C)C)NC(=O)[C@H](CCCCN)NC(=O)[C@H](CCCCN)NC(=O)[C@H](CCCCN)NC(=O)[C@H](Cc1c[nH]cn1)NC(=O)[C@H](CCCCN)NC(=O)[C@H](CCC(N)=O)NC(=O)[C@@H](NC(=O)[C@H](CS)NC(=O)[C@@H](N)Cc1ccc(O)cc1)C(C)C)[C@@H](C)O)C(N)=O [PsNCR349_31-50] (H-YCVQKHKKKLKKKKKLTFNM-NH2) | 6.25 µM (≈ 15.8 µg/mL) | 1.6 µM (≈ 4.03 µg/mL) | – | – | – |
